These results are taken from patent US20080090834A1, “SELECTIVE AZOLE PDE10A INHIBITOR COMPOUNDS” (Pfizer Inc, priority 2006, published 2008).

pIC50: −log10 of the molar value. Where a name gives a salt, the structure may show the parent alone. A value given as a limit tells only on which side of the number the result lay.

One may read the pIC50 as the negative decadic logarithm of the IC50, by convention in mol/L. The melting point is the temperature of the solid-liquid transition.

The first data set addresses T1, cloned rat PDE10A full-length enzyme (Rattus norvegicus, UniProt Q9QYJ6).
T1 construct: cloned rat PDE10A full-length enzyme grown in transfected Sf9 insect cells; made in house; host or cells: Sf9 insect cells
T1 sequence (Q9QYJ6 1-794): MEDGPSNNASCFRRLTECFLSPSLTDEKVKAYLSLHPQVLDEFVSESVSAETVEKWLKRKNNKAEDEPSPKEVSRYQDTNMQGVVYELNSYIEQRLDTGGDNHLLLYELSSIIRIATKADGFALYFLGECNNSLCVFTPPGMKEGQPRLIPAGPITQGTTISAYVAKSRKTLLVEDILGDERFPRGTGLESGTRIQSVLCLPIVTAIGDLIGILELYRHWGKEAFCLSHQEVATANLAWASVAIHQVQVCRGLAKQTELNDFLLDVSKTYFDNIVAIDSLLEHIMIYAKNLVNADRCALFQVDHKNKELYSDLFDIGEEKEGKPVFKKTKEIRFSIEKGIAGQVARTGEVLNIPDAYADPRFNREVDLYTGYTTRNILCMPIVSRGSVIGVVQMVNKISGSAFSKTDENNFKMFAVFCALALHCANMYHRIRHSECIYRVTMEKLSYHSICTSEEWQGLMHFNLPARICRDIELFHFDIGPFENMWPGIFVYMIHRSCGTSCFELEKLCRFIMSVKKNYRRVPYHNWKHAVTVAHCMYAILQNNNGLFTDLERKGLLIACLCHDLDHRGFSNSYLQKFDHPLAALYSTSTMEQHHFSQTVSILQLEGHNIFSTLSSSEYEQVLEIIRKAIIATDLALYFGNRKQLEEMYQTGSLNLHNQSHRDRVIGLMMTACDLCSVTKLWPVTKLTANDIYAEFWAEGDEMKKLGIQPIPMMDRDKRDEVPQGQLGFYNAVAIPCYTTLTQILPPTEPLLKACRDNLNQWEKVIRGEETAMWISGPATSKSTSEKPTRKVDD
Put plainly: PDE10 enzyme inhibition, [3H]cAMP scintillation proximity assay. Conditions: rat PDE10A from Sf9 cells, 20 nM [3H]cAMP, SPA beads, 20 minute incubation at room temperature. The class given is biochemical. In a few lines:
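Full-length rat PDE10A from Sf9 cells hydrolysed 20 nM [3H]cAMP in 50 mM Tris, 8.3 mM MgCl2, pH 7.5, 2% DMSO, for 20 minutes at room temperature (<10% conversion). Yttrium silicate SPA beads with zinc sulphate stopped the reaction and captured [3H]AMP; 1 uM papaverine defined non-specific binding, vehicle defined total conversion.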
Compound `c1ccc(-c2cn(-c3cccnc3)c(-c3ccc(-n4ccc5cccnc54)cc3)n2)nc1` [Example 7, 1-(4-(4-(pyridin-2-yl)-1-(pyridin-3-yl)-1H-imidazol-2-yl)phenyl)-1H-pyrrolo[2,3-b]pyridine] had a pIC50 of 8.16.

`c1cncc(-n2cc(-c3nccs3)nc2-c2ccc(-n3ccc4cccnc43)cc2)c1` [Example 23, 1-(4-(1-(pyridin-3-yl)-4-(thiazol-2-yl)-1H-imidazol-2-yl)phenyl)-1H-pyrrolo[2,3-b]pyridine] gave a pIC50 of 8.48.

Compound `COc1nc2cccnc2n1-c1ccc(-c2nc(-c3nccs3)cn2-c2ccc(C)nc2)cc1` [Example 81, 2-methoxy-3-(4-(1-(6-methylpyridin-3-yl)-4-(thiazol-2-yl)-1H-imidazol-2-yl)phenyl)-3H-imidazo[4,5-b]pyridine] gave a pIC50 of 9.48. This pIC50 is 1.00 log units higher than that of the compound before.

As for `Cc1ccc(-n2cc(-c3cscn3)nc2-c2ccc(-n3c(C(F)(F)F)nc4cccnc43)cc2)cn1` [Example 99, 2-(trifluoromethyl)-3-(4-(1-(6-methylpyridin-3-yl)-4-(thiazol-4-yl)-1H-imidazol-2-yl)phenyl)-3H-imidazo[4,5-b]pyridine], the negative-log IC50 (pIC50) was 8.81.

With `COc1ccc(-c2[nH]c(-c3cccs3)nc2-c2ccc(-n3ccc4cccnc43)cc2)cc1` [Example 103], the pIC50 was 8.55.

The compound `On1c(-c2cccs2)nc(-c2ccc(-n3ccc4cccnc43)cc2)c1-c1cnccn1` [Example 104, 1-(4-(1-hydroxy-5-(pyrazin-2-yl)-2-(thiophen-2-yl)-1H-imidazol-4-yl)phenyl)-1H-pyrrolo[2,3-b]pyridine] gave a negative-log IC50 (pIC50) of over 8.61.

The compound `c1csc(-c2nc(-c3ccc(-n4ccc5cccnc54)cc3)c(-c3cnccn3)[nH]2)c1` [Example 105] gave a negative logarithm of the IC50 (pIC50) of 8.04.

`COc1ccc(-c2[nH]c(-c3cccs3)nc2-c2ccc(-n3ccnc3)cc2)cc1` [Example 106, 1-(4-(5-(4-methoxyphenyl)-2-(thiophen-2-yl)-1H-imidazol-4-yl)phenyl)-1H-imidazole]: the pIC50 was 7.96.

`CN1CCN(c2ccc(-c3[nH]c(-c4cncs4)nc3-c3ccc(-n4ccc5cccnc54)cc3)cn2)CC1` [Example 107] showed a pIC50 of 8.65.

Turning to `COc1ccc(-c2[nH]c(-c3cccs3)nc2-c2ccc(-n3cnc(-c4ccccc4)c3)cc2)cc1` [Example 108], the pIC50 is 6.22.

`Cc1cc(-c2nc(-c3cccs3)n(O)c2-c2cnccn2)ccc1-n1ccc2cccnc21` [Example 109, 1-(4-(1-hydroxy-5-(pyrazin-2-yl))-2-(thiophen-2-yl)-1H-imidazol-4-yl)-2-methylphenyl-1H-pyrrolo[2,3-b]pyridine] gave a pIC50 of 7.74.

Compound `Cc1cc(-c2nc(-c3cccs3)n(O)c2-c2cnccn2)ccc1-n1ccc2cccnc21` [Example 110, 1-(4-(1-hydroxy-5-(pyrazin-2-yl)-2-(thiophen-2-yl)-1H-imidazol-4-yl)-2-methylphenyl)-1H-pyrrolo[2,3-b]pyridine] showed a pIC50 of 7.44. This pIC50 lies 0.30 log units lower than the previous one.

Consider `COc1ccc(-c2[nH]c(-c3cccs3)nc2-c2ccc(-n3cnc4ccccc43)cc2)cc1` [Example 111], for which the pIC50 was 8.03.

In the case of `Cc1cc(-c2nc(-c3cncs3)[nH]c2-c2cnccn2)ccc1-n1ccc2cccnc21` [Example 112], the pIC50 was 6.76. This pIC50 lies 1.27 log units lower than the previous one.

The compound `Cc1cc(-c2nc(-c3cccs3)[nH]c2-c2cnccn2)ccc1-n1ccc2cccnc21` [Example 113] gave a pIC50 of 7.32.

The compound `c1ccc(-c2nc(-c3cccnc3)c(-c3ccc(-n4ccc5cccnc54)cc3)[nH]2)nc1` [Example 114, 1-(4-(2-(pyridin-2-yl)-4-(pyridin-3-yl)-1H-imidazol-5-yl)phenyl)-1H-pyrrolo[2,3-b]pyridine] had a pIC50 of 7.73. Against the preceding compound, the pIC50 is 0.41 log units higher.

As to `c1ccc(-c2nc(-c3cccnc3)n(-c3ccc(-n4ccc5cccnc54)cc3)n2)nc1` [Example 115, 1-(4-(3-(pyridin-2-yl)-5-(pyridine-3-yl)-1H-1,2,4-triazol-1-yl)phenyl)-1H-pyrrolo[2,3-b]pyridine], the pIC50 was 7.75. This pIC50 and that of the compound before are within 0.2 log units of each other.

The compound `COc1nc2cccnc2n1-c1ccc(-c2nc(-c3cncs3)cn2-c2ccc(C)nc2)cc1` [Example 116] had a pIC50 of 9.52.

In turn, `Cc1ccc(-n2cc(-c3cncs3)nc2-c2ccc(-n3c(C(F)(F)F)nc4cccnc43)cc2)cn1` [Example 117, 2-(trifluoromethyl)-3-(4-(1-(6-methylpyridin-3-yl)-4-(thiazol-5-yl)-1H-imidazol-2-yl)phenyl)-3H-imidazo[4,5-b]pyridine] gave a negative logarithm of the IC50 (pIC50) of 9.21.

The compound `Cc1ccc(-n2cc(-c3nccs3)nc2-c2ccc(-n3c(=O)[nH]c4cccnc43)cc2)cn1` [Example 118, 3-(4-(1-(6-methylpyridin-3-yl)-4-(thiazol-2-yl)-1H-imidazol-2-yl)phenyl)-1H-imidazo[4,5-b]pyridin-2(3H)-one] had a pIC50 of 9.13.

`c1ccc(-n2nc(-c3ccc(-n4ccc5cccnc54)cc3)c(-c3cccnc3)n2)nc1` [Example 119, 1-(4-(2-(pyridin-2-yl)-5-(pyridin-3-yl)-2H-1,2,3-triazol-4-yl)phenyl)-1H-pyrrolo[2,3-b]pyridine]: the pIC50 was 6.87.

For `c1ccc(-n2cc(-c3cccnc3)c(-c3ccc(-n4ccc5cccnc54)cc3)n2)nc1` [Example 120, 1-(4-(1-(pyridin-2-yl)-4-(pyridin-3-yl)-1H-pyrazol-3-yl)phenyl)-1H-pyrrolo[2,3-b]pyridine], the pIC50 is 7.37.

With `c1ccc(-c2cc(-c3cccnc3)n(-c3ccc(-n4ccc5cccnc54)cc3)n2)nc1` [Example 121, 1-(4-(3-(pyridin-2-yl)-5-(pyridin-3-yl)-1H-pyrazol-1-yl)phenyl)-1H-pyrrolo)-2,3-b]pyridine bis-TFA salt], the pIC50 is 8.03.

In turn, `c1ccc(-c2cc(-c3cccnc3)nn2-c2ccc(-n3ccc4cccnc43)cc2)nc1` [Example 122, 1-(4-(5-(pyridin-2-yl)-3-(pyridin-3-yl)-1H-pyrazol-1-yl)phenyl)-1H-pyrrolo[2,3-b]pyridine TFA salt] showed a negative logarithm of the IC50 (pIC50) of 7.68. This pIC50 is 0.35 log units lower than that of the compound before.

As for `c1ccc(-c2nc(-c3ccc(-n4ccc5cccnc54)cc3)n(-c3cccnc3)n2)nc1` [Preparation 123, 1-(4-(5-(pyridin-2-yl)-2-(pyridin-3-yl)-2H-1,2,4-triazol-3-yl)phenyl)-1H-pyrrolo[2,3-b]pyridine], the pIC50 was 7.58.

System in a further data set: not given
Assay: not given
Settings: not given
For the compound `c1ccc(-c2cn(-c3cccnc3)c(-c3ccc(-n4ccc5cccnc54)cc3)n2)nc1` [Example 7, 1-(4-(4-(pyridin-2-yl)-1-(pyridin-3-yl)-1H-imidazol-2-yl)phenyl)-1H-pyrrolo[2,3-b]pyridine], the melting point was 174 to 176 °C.

Regarding `c1cncc(-n2cc(-c3nccs3)nc2-c2ccc(-n3ccc4cccnc43)cc2)c1` [Example 23, 1-(4-(1-(pyridin-3-yl)-4-(thiazol-2-yl)-1H-imidazol-2-yl)phenyl)-1H-pyrrolo[2,3-b]pyridine], the melting point lay within 195 to 197 °C.

Turning to `COc1nc2cccnc2n1-c1ccc(-c2nc(-c3nccs3)cn2-c2ccc(C)nc2)cc1` [Example 81, 2-methoxy-3-(4-(1-(6-methylpyridin-3-yl)-4-(thiazol-2-yl)-1H-imidazol-2-yl)phenyl)-3H-imidazo[4,5-b]pyridine], the melting point lay within 190 to 192 °C.

`Cc1ccc(-n2cc(-c3cscn3)nc2-c2ccc(-n3c(C(F)(F)F)nc4cccnc43)cc2)cn1` [Example 99, 2-(trifluoromethyl)-3-(4-(1-(6-methylpyridin-3-yl)-4-(thiazol-4-yl)-1H-imidazol-2-yl)phenyl)-3H-imidazo[4,5-b]pyridine] registered a melting point of 201 to 204 °C.
